Tested on: monocyte-free human T cells
Test: Inhibition of 5-HT-dependent T Cell Proliferation
Format: cell-based
Conditions: PWM (1:200) and 5-HT (100 μm), 7 days, 3H-thymidine incorporation, 33 μM-0.1 μM
From the text: The in vitro activity of the compounds according to the invention results from their capability to inhibit T cell proliferation, which is previously stimulated by serotonin.
Inhibition of 5-HT-dependent T Cell Proliferation
Peripheral mononuclear blood cells (PBMC) are obtained from the buffy coat of the blood of healthy subjects. After isolation by means of isolymph gradients (Pharmacia), the PBMC are washed twice and used directly. Purified T cells are obtained by E rosette formation with sheep erythrocytes [cf. Blue, M. L., J. F. Daley, H. Levine, K. A. Craig and S. F. Schlossmann, 1986, Biosynthesis and surface expression of T8 by peripheral blood T4+ cells in vitro, J. Immunol. 137, 1202]. Monocytes are partially removed by adhesion to tissue culture plates or flasks. […] The cultures are treated with 1 μCi of ^3 H-thymidine for 6 h on the 7th day and collected on filter paper, and the incorporated radioactivity is determined by means of liquid scintillation counting.
The test substances are dissolved in 10 mM HCl in order to achieve a final concentration of 1 mM in each case. […] The inhibitory activity of the test substances is expressed as the IC50 in μM. […]

SMILES	IC50 [µM]
O=C1CC2(CC3c4ccccc4C2c2ccccc23)C(=O)N1CCCN1CCN(c2ccc(F)cc2)CC1 (centres unmarked) [Example 1, 1'-{3-[4-(4-Fluorophenyl)-piperazin-1-yl]-propyl}-9,10-dihydro-9,10-ethano-anthracene-11-spiro-3'-pyrrolidine-2',5'-dione]	2
O=C1CC2(CC3c4ccccc4C2c2ccccc23)C(=O)N1CCCN1CCN(c2ccccc2)CC1 (centres unmarked) [Example 2]	5

From US5461054A, “Anthracene-spiro-pyrrolindines” (Bayer Aktiengesellschaft, priority 1993, dated 1995)
